Test results taken from PMC6631999, “A Universal Photochemical Method to Prepare Carbohydrate Sensors Based on Perfluorophenylazide Modified Polydopamine for Study of Carbohydrate-Lectin Interactions by QCM Biosensor” (Polymers, 2019).

Experiments:
soybean agglutinin (SBA) = biological target: T1, soybean agglutinin (SBA) (Glycine max, UniProt P05046); assay: QCM biosensor frequency shift (Attana Cell-A200); format: binding
T1 construct: gene LE1; native commercial plant lectin (Vector Laboratories), in solution
T1 sequence (P05046 33-285): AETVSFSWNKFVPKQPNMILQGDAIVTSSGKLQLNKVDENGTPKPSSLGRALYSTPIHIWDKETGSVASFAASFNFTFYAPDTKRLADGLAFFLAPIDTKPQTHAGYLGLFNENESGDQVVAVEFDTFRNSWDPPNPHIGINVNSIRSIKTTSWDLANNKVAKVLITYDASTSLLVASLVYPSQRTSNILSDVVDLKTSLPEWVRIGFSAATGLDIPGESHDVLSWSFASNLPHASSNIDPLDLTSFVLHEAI

peanut agglutinin (PNA) = biological target: T2, peanut agglutinin (PNA) (Arachis hypogaea, UniProt P02872); assay: QCM biosensor frequency shift (Attana Cell-A200); format: binding; conditions: sugar photochemically immobilised on PFPA-polydopamine sensor; lectin 100 ug/mL; 10 mM PBS pH 7.4; BSA-blocked
T2 construct: native commercial plant lectin (Vector Laboratories), in solution
T2 sequence (P02872 24-273): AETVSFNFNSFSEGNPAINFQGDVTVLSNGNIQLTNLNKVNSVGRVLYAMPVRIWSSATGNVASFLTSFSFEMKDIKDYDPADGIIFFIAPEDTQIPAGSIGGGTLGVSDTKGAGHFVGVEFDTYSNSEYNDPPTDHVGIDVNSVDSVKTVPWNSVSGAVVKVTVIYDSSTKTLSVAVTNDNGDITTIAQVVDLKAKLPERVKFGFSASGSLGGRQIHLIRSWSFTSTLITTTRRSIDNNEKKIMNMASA

## OC[C@H]1OC(O)[C@H](O)[C@@H](O)[C@H]1O (some centres unmarked) [galactose]
Soybean agglutinin (SBA)
  QCM biosensor frequency shift (Attana Cell-A200): SBA has the highest binding with galactose, followed by PNA
Peanut agglutinin (PNA)
  QCM biosensor frequency shift (Attana Cell-A200): both SBA and PNA can bind to galactose, but the binding strengths are different
